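Five concentrations, 48 hours, 96-well plates. TGI: concentration producing complete growth inhibition.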

We go through seven compounds from PubChem BioAssay (NCI).

Test systems include NCI-H460 lung; TK-10 renal; OVCAR-8 ovarian; SN12C renal; LOX IMVI melanoma; NCI-H522 lung; A498 renal; MDA-MB-435; IGROV1 ovarian; HCT-15 colon; MCF7 breast; MOLT-4 leukemia; HOP-92 NSCLC; SK-MEL-2 melanoma; CCRF-CEM leukemia; NCI/ADR-RES ovarian; SK-MEL-28 melanoma; K-562 leukemia; UACC-62 melanoma; SF-295 CNS.
Common to all, as to experiment: NCI-60 cell line screen, 48 h

As to `Oc1cc(O)c2ccc(-c3ccc(O)c(O)c3)[o+]c2c1`, the TGI with NCI-H460 lung, in the assay with TK-10 renal, in the assay on OVCAR-8 ovarian, in the assay with SN12C renal, with LOX IMVI melanoma and in the assay on NCI-H522 lung was over 100 µM each time. The TGI in the assay on A498 renal, in the assay on MDA-MB-435, with IGROV1 ovarian, with HCT-15 colon, with MCF7 breast and in the assay on MOLT-4 leukemia was over 100 µM throughout. Also, the TGI with HOP-92 NSCLC, in the assay with SK-MEL-2 melanoma, with CCRF-CEM leukemia, in the assay on NCI/ADR-RES ovarian, with SK-MEL-28 melanoma and in the assay with K-562 leukemia was over 100 µM throughout. In the assay with UACC-62 melanoma, this compound returned a TGI of over 100 µM.
Regarding `CN(C)CCCC1c2ccccc2Oc2ccc(C(F)(F)F)cc21` (configuration not stated), the TGI in the assay on NCI-H460 lung came out at 31.8 µM; in the assay with TK-10 renal, 29.3 µM; in the assay on OVCAR-8 ovarian it was 31.9 µM; in the assay on SF-295 CNS, 31.6 µM; in the assay on SN12C renal it was 28.2 µM; in the assay with LOX IMVI melanoma, 31.6 µM. Further, the TGI with NCI-H522 lung came out at 29.4 µM; in the assay with A498 renal, 25.9 µM; in the assay on MDA-MB-435 it was 19.1 µM; with IGROV1 ovarian, 27.6 µM; in the assay with HCT-15 colon it was 31.5 µM; with MCF7 breast, 26.6 µM. Also, the TGI was determined as 22.7 µM with MOLT-4 leukemia; 25.2 µM in the assay on HOP-92 NSCLC; 28.5 µM with SK-MEL-2 melanoma; 31.5 µM in the assay with CCRF-CEM leukemia; 28.3 µM in the assay on NCI/ADR-RES ovarian; 15.7 µM in the assay on SK-MEL-28 melanoma. In addition, the TGI came to 18.3 µM in the assay with K-562 leukemia and 23.4 µM with UACC-62 melanoma.
Turning to `N#CC(N)c1ccc(OCCCCCCCCCCOc2ccc(C(N)C#N)cc2)cc1` (configuration not stated), the TGI in the assay on NCI-H460 lung, in the assay on TK-10 renal, in the assay with OVCAR-8 ovarian, in the assay on SF-295 CNS, with SN12C renal and with LOX IMVI melanoma was over 100 µM throughout. The TGI with NCI-H522 lung, in the assay with A498 renal, in the assay on MDA-MB-435, with IGROV1 ovarian, in the assay on HCT-15 colon and with MCF7 breast was over 100 µM in each case. Further, the TGI is over 100 µM in the assay on MOLT-4 leukemia; over 100 µM in the assay with HOP-92 NSCLC; over 100 µM in the assay on SK-MEL-2 melanoma; 67.8 µM in the assay with CCRF-CEM leukemia; over 100 µM with NCI/ADR-RES ovarian; over 100 µM with SK-MEL-28 melanoma. The TGI in the assay with K-562 leukemia and with UACC-62 melanoma was over 100 µM in each case.
For the compound `O=[N+]([O-])c1ccc2nc(Cl)n[n+]([O-])c2c1`, the TGI in the assay on NCI-H460 lung came out at 43.3 µM; with TK-10 renal, 30.8 µM; in the assay with OVCAR-8 ovarian it was 30.7 µM; in the assay with SF-295 CNS it was 47.9 µM; with SN12C renal it was 37.4 µM; with LOX IMVI melanoma, 5.23 µM. For the same compound, the TGI came out at 25.8 µM in the assay with NCI-H522 lung; 21.2 µM with A498 renal; 26.9 µM with MDA-MB-435; 25.6 µM with IGROV1 ovarian; 29.7 µM in the assay on HCT-15 colon; 20 µM in the assay on MCF7 breast. Moreover, the TGI was 3.34 µM in the assay on MOLT-4 leukemia; 19.6 µM in the assay with HOP-92 NSCLC; 29.2 µM in the assay with SK-MEL-2 melanoma; 2.8 µM in the assay on CCRF-CEM leukemia; 60.1 µM in the assay with NCI/ADR-RES ovarian; 34 µM with SK-MEL-28 melanoma. Besides, the TGI in the assay on K-562 leukemia stood at 2.74 µM; in the assay on UACC-62 melanoma, 27.9 µM.
As for `CCCCNc1nc2ccccc2c2c1ncn2CC(C)C`, the TGI with NCI-H460 lung, in the assay with TK-10 renal, in the assay with OVCAR-8 ovarian, with SF-295 CNS, in the assay on SN12C renal and in the assay with LOX IMVI melanoma was over 100 µM each time. Moreover, the TGI in the assay on NCI-H522 lung, with A498 renal, with MDA-MB-435, in the assay on IGROV1 ovarian, in the assay on HCT-15 colon and in the assay with MCF7 breast was over 100 µM in each case. For the same compound, the TGI with MOLT-4 leukemia, in the assay on HOP-92 NSCLC, with SK-MEL-2 melanoma, in the assay on CCRF-CEM leukemia, in the assay with NCI/ADR-RES ovarian and in the assay with SK-MEL-28 melanoma was over 100 µM throughout. Besides, the TGI in the assay on K-562 leukemia and in the assay on UACC-62 melanoma was over 100 µM each time.
For the compound `S=C(NNC1=NCCCCN1)Nc1ccc(Cl)cc1`, the TGI in the assay on NCI-H460 lung is over 100 µM; in the assay with TK-10 renal, over 100 µM; in the assay on OVCAR-8 ovarian it was over 100 µM; in the assay on SF-295 CNS, 57.5 µM; with LOX IMVI melanoma, over 100 µM; in the assay with NCI-H522 lung it was 42.3 µM. The TGI in the assay on A498 renal is over 100 µM; with MDA-MB-435, over 100 µM; in the assay on IGROV1 ovarian, over 100 µM; with HCT-15 colon, over 100 µM; with MCF7 breast it was over 100 µM; in the assay with MOLT-4 leukemia, 47.1 µM. Besides, the TGI in the assay on HOP-92 NSCLC, in the assay on SK-MEL-2 melanoma, with CCRF-CEM leukemia, with NCI/ADR-RES ovarian, with SK-MEL-28 melanoma and in the assay with K-562 leukemia was over 100 µM in each case. This compound also returned a TGI with UACC-62 melanoma of 18.9 µM.
Consider `O=C(O)CSC(CC1(c2ccc(Cl)cc2)NC(=O)CS1)c1ccc(Cl)cc1` (configuration not stated), for which the TGI with NCI-H460 lung, in the assay with TK-10 renal, with OVCAR-8 ovarian, with SF-295 CNS, in the assay on SN12C renal and in the assay on LOX IMVI melanoma was over 100 µM in each case. Moreover, the TGI in the assay with NCI-H522 lung, in the assay with A498 renal, with MDA-MB-435, with IGROV1 ovarian, with HCT-15 colon and in the assay on MCF7 breast was over 100 µM throughout. The TGI in the assay on MOLT-4 leukemia is over 100 µM; with HOP-92 NSCLC, 87.6 µM; in the assay on SK-MEL-2 melanoma, over 100 µM; in the assay on CCRF-CEM leukemia, over 100 µM; in the assay with NCI/ADR-RES ovarian, over 100 µM; with K-562 leukemia, over 100 µM. In addition, the TGI in the assay with UACC-62 melanoma is over 100 µM.
